Test results from patent US4011327A (priority 1975, dated 1977).
Converted amounts (≈) assume the structure as drawn. “And” between values parts separate entries of the source, which are not always exact repeats. Equal values may be shown once. Read-outs that look alike come from different tables or passages of the source.

Legend:
Format in all cases: cell-based
Trichophyton rubrum = test: Antifungal activity in vitro, mycelial growth on Sabouraud dextrose agar; details: for weekly increments of the diameter of colony: duplicates a, b; for MIC: Trichophyton rubrum
Blastomyces dermatitidis = test: as above; details: for weekly increments of the diameter of colony: duplicates a, b; for MIC: Blastomyces dermatitidis
Sporotrichum schenckii = test: as above; details: for weekly increments of the diameter of colony: duplicates a, b; for MIC: Sporothrix schenckii
Histoplasma capsulatum = test: microbe, parasite or virus in culture; details: for weekly increments of the diameter of colony: duplicates a, b; for MIC: Histoplasma capsulatum
[1] = 336 h, read-out: minimum in vitro inhibitory concentration
[2] = 336 h, two week period, read-out: minimum in vitro inhibitory concentration

With `CSC1(C)CCC2C(C)CCC(c3ccoc3)N2C1O` (single isomer, unassigned) [Example 7-MTDOL, 7β-methylthiodeoxynupharidin-6α-ol] as the compound, how does the “weekly increments of the diameter of colony” value (shortened to “weekly increments”) (Trichophyton rubrum; 10 mcg/ml, week 1, No. 1112, 25° C) read?
Its value is 10 mm and 11 mm.

What about the “weekly increments” value (Trichophyton rubrum; 10 mcg/ml, week 2, No. 1112, 25° C, colony overgrown by adjacent culture) of the same compound?
Its value is 20 mm.

And the “weekly increments” value (Trichophyton rubrum; 10 mcg/ml, week 3, No. 1112, 25° C, colony overgrown by adjacent culture)?
The value was 22 mm and 25 mm.

What about the “weekly increments” value (Trichophyton rubrum; 20 mcg/ml, week 1, No. 1112, 25° C) of the same compound?
Its value is 8 mm and 7 mm.

What about the “weekly increments” value (Trichophyton rubrum; 20 mcg/ml, week 2, No. 1112, 25° C) of the same compound?
Its value is 21 mm and 20 mm.

And the “weekly increments” value (Trichophyton rubrum; 20 mcg/ml, week 3, No. 1112, 25° C, b: colony overgrown by adjacent culture)?
Its value is 30 mm and 22 mm.

And the “weekly increments” value (Trichophyton rubrum; 40 mcg/ml, week 1, No. 1112, 25° C)?
Its value is 8 mm and 6 mm.

And the “weekly increments” value (Trichophyton rubrum; 40 mcg/ml, week 2, No. 1112, 25° C)?
Its value is 20 mm and 18 mm.

And the “weekly increments” value (Trichophyton rubrum; 40 mcg/ml, week 3, No. 1112, 25° C)?
Its value is 30 mm and 26 mm.

And the “weekly increments” value (Trichophyton rubrum; 60 mcg/ml, week 2, No. 1112, 25° C)?
The value was 8 mm and 6 mm.

What about the “weekly increments” value (Trichophyton rubrum; 60 mcg/ml, week 3, No. 1112, 25° C) of the same compound?
Its value is 14 mm and 15 mm.

And the “weekly increments” value (Trichophyton rubrum; 80 mcg/ml, week 1, No. 1112, 25° C)?
The value was 0 mm.

And the “weekly increments” value (Trichophyton rubrum; 80 mcg/ml, week 2, No. 1112, 25° C)?
The value was 5 mm.

And the “weekly increments” value (Trichophyton rubrum; 80 mcg/ml, week 3, No. 1112, 25° C)?
Its value is 9 mm and 6 mm.

What about the “weekly increments” value (Trichophyton rubrum; 100 mcg/ml, week 3, No. 1112, 25° C) of the same compound?
The value was 6 mm and 7 mm.

What about the MIC (Trichophyton rubrum; [1]) of the same compound?
Its MIC is 100 µg/mL (≈ 338 µM).

And the MIC (Trichophyton rubrum; 504 h, read-out: concentration inhibiting growth)?
Its MIC is 100 µg/mL (≈ 338 µM).

What about the “weekly increments” value (Blastomyces dermatitidis; 10 mcg/ml, week 1, No. 1107, 25° C) of the same compound?
The value was 14 mm.

And the “weekly increments” value (Blastomyces dermatitidis; 10 mcg/ml, week 2, No. 1107, 25° C)?
Its value is 20 mm and 21 mm.

What about the “weekly increments” value (Blastomyces dermatitidis; 10 mcg/ml, week 3, No. 1107, 25° C) of the same compound?
The value was 35 mm and 32 mm.

What about the “weekly increments” value (Blastomyces dermatitidis; 20 mcg/ml, week 1, No. 1107, 25° C) of the same compound?
The value was 10 mm.

And the “weekly increments” value (Blastomyces dermatitidis; 20 mcg/ml, week 2, No. 1107, 25° C)?
The value was 16 mm and 15 mm.

And the “weekly increments” value (Blastomyces dermatitidis; 20 mcg/ml, week 3, No. 1107, 25° C)?
Its value is 17 mm and 18 mm.

And the “weekly increments” value (Blastomyces dermatitidis; 40 mcg/ml, week 1, No. 1107, 25° C)?
Its value is 7 mm and 6 mm.

And the “weekly increments” value (Blastomyces dermatitidis; 40 mcg/ml, week 2, No. 1107, 25° C)?
Its value is 15 mm.

And the “weekly increments” value (Blastomyces dermatitidis; 40 mcg/ml, week 3, No. 1107, 25° C)?
The value was 20 mm and 28 mm.

What about the “weekly increments” value (Blastomyces dermatitidis; 60 mcg/ml, week 1, No. 1107, 25° C) of the same compound?
Its value is 0 mm.

And the “weekly increments” value (Blastomyces dermatitidis; 60 mcg/ml, week 2, No. 1107, 25° C)?
Its value is 5 mm.

And the “weekly increments” value (Blastomyces dermatitidis; 60 mcg/ml, week 3, No. 1107, 25° C)?
The value was 5 mm and 7 mm.

What about the “weekly increments” value (Blastomyces dermatitidis; 80 mcg/ml, week 1, No. 1107, 25° C) of the same compound?
Its value is 0 mm.

What about the “weekly increments” value (Blastomyces dermatitidis; 80 mcg/ml, week 2, No. 1107, 25° C) of the same compound?
The value was 0 mm.

And the “weekly increments” value (Blastomyces dermatitidis; 100 mcg/ml, week 1, No. 1107, 25° C)?
Its value is 0 mm.

And the MIC (Blastomyces dermatitidis; [2])?
The MIC was 80 µg/mL (≈ 271 µM).

What about the MIC (Blastomyces dermatitidis; 504 h, up to the end of 3 weeks, Sabouraud dextrose agar, read-out: concentration inhibiting mycelial growth) of the same compound?
The MIC was 80 µg/mL (≈ 271 µM).

What about the “weekly increments” value (Sporotrichum schenckii; 10 mcg/ml, week 1, No. 1109, 25° C) of the same compound?
The value was 11 mm and 10 mm.

And the “weekly increments” value (Sporotrichum schenckii; 10 mcg/ml, week 2, No. 1109, 25° C)?
The value was 25 mm and 24 mm.

And the “weekly increments” value (Sporotrichum schenckii; 20 mcg/ml, week 2, No. 1109, 25° C)?
Its value is 20 mm.

And the “weekly increments” value (Sporotrichum schenckii; 20 mcg/ml, week 3, No. 1109, 25° C)?
The value was 31 mm and 29 mm.

What about the “weekly increments” value (Sporotrichum schenckii; 40 mcg/ml, week 2, No. 1109, 25° C, a: colony overgrown by adjacent culture) of the same compound?
The value was 18 mm and 15 mm.

And the “weekly increments” value (Sporotrichum schenckii; 40 mcg/ml, week 3, No. 1109, 25° C, a: colony overgrown by adjacent culture)?
The value was 18 mm and 25 mm.

What about the “weekly increments” value (Sporotrichum schenckii; 60 mcg/ml, week 1, No. 1109, 25° C) of the same compound?
Its value is 0 mm.

And the “weekly increments” value (Sporotrichum schenckii; 60 mcg/ml, week 2, No. 1109, 25° C)?
The value was 10 mm.

What about the “weekly increments” value (Sporotrichum schenckii; 60 mcg/ml, week 3, No. 1109, 25° C) of the same compound?
Its value is 20 mm.

And the “weekly increments” value (Sporotrichum schenckii; 80 mcg/ml, week 1, No. 1109, 25° C)?
The value was 0 mm.

And the “weekly increments” value (Sporotrichum schenckii; 80 mcg/ml, week 2, No. 1109, 25° C)?
Its value is 0 mm.

And the “weekly increments” value (Sporotrichum schenckii; 100 mcg/ml, week 1, No. 1109, 25° C)?
Its value is 0 mm.

What about the “weekly increments” value (Sporotrichum schenckii; 100 mcg/ml, week 2, No. 1109, 25° C) of the same compound?
The value was 0 mm.

What about the “weekly increments” value (Sporotrichum schenckii; 100 mcg/ml, week 3, No. 1109, 25° C) of the same compound?
Its value is 0 mm.

And the MIC (Sporotrichum schenckii; [2])?
Its MIC is 100 µg/mL (≈ 338 µM).

What about the MIC (Sporotrichum schenckii; 504 h, up to the end of 3 weeks, Sabouraud dextrose agar, read-out: concentration inhibiting growth) of the same compound?
The MIC was 100 µg/mL (≈ 338 µM).

And the “weekly increments” value (Histoplasma capsulatum; 10 mcg/ml, week 2, No. 1106, 25° C)?
The value was 15 mm and 10 mm.

What about the “weekly increments” value (Histoplasma capsulatum; 10 mcg/ml, week 3, No. 1106, 25° C) of the same compound?
The value was 25 mm and 29 mm.

And the “weekly increments” value (Histoplasma capsulatum; 20 mcg/ml, week 1, No. 1106, 25° C)?
Its value is 0 mm.

What about the “weekly increments” value (Histoplasma capsulatum; 20 mcg/ml, week 3, No. 1106, 25° C) of the same compound?
Its value is 10 mm and 5 mm.

And the “weekly increments” value (Histoplasma capsulatum; 40 mcg/ml, week 1, No. 1106, 25° C)?
The value was 0 mm.

And the “weekly increments” value (Histoplasma capsulatum; 60 mcg/ml, week 1, No. 1106, 25° C)?
Its value is 0 mm.

What about the “weekly increments” value (Histoplasma capsulatum; 60 mcg/ml, week 2, No. 1106, 25° C) of the same compound?
Its value is 0 mm.

What about the “weekly increments” value (Histoplasma capsulatum; 60 mcg/ml, week 3, No. 1106, 25° C) of the same compound?
The value was 0 mm.

And the “weekly increments” value (Histoplasma capsulatum; 80 mcg/ml, week 1, No. 1106, 25° C)?
Its value is 0 mm.

And the “weekly increments” value (Histoplasma capsulatum; 80 mcg/ml, week 2, No. 1106, 25° C)?
The value was 0 mm.

And the “weekly increments” value (Histoplasma capsulatum; 80 mcg/ml, week 3, No. 1106, 25° C)?
Its value is 0 mm.

What about the “weekly increments” value (Histoplasma capsulatum; 100 mcg/ml, week 1, No. 1106, 25° C) of the same compound?
The value was 0 mm.

And the “weekly increments” value (Histoplasma capsulatum; 100 mcg/ml, week 2, No. 1106, 25° C)?
Its value is 0 mm.

What about the “weekly increments” value (Histoplasma capsulatum; 100 mcg/ml, week 3, No. 1106, 25° C) of the same compound?
Its value is 0 mm.

What about the MIC (Histoplasma capsulatum; [1]) of the same compound?
The MIC was 40 µg/mL (≈ 135 µM).

And the MIC (Histoplasma capsulatum; 504 h, read-out: concentration inhibiting mycelial growth)?
The MIC was 40 µg/mL (≈ 135 µM).
